Patent US8557840B2, “Herbicidal compounds” (Syngenta Limited, priority 2008, dated 2013)

What was measured:
Assay type in all cases: in vivo
[1] = tested on: test plants; assay: Herbicidal action, post-emergence (Example B2), all test plants, result in words; conditions: same protocol as Example B2, post-emergence
Description: Seeds of a variety of test species were sown in standard soil in pots. After 8 days cultivation (post-emergence) under controlled conditions in a glasshouse (at 24/16° C., day/night; 14 hours light; 65% humidity), the plants were sprayed with an aqueous spray solution derived from the formulation of the technical active ingredient in acetone/water (50:50) solution containing 0.5% Tween 20 (polyoxyethelyene sorbitan monolaurate, CAS RN 9005-64-5). The test plants were then grown in a glasshouse under controlled conditions in a glasshouse (at 24/16° C., day/night; 14 hours light; 65% humidity) and watered twice daily. After 13 days, the test was evaluated (10=total damage to plant; 0=no damage to plant).

[2] = tested on: Stellaria media; assay: Herbicidal action, post-emergence, seed trays in climatic chamber (Example B1); conditions: 1000 g/ha, evaluated after 9 days, 10=total damage to plant, 0=no damage to plant
Description: (§1) Seeds of a variety of test species were sown in sterilised standard soil in seed trays each having 96 cells. […] The plants were grown in the climatic chamber after application at (24/19° C., day/night; 13 hours light; 50-60% humidity) and watered twice daily. After 9 days until the test was evaluated (10=total damage to plant, 0=no damage to plant)

[3] = tested on: Nasturtium officinale; assay: as above; conditions: 1000 g/ha, evaluated after 9 days, 10=total damage to plant, 0=no damage to plant
Description: as §1

[4] = tested on: Solanum nigrum; assay: as above; conditions: 1000 g/ha, evaluated after 9 days, 10=total damage to plant, 0=no damage to plant
Description: as §1

[5] = tested on: Amaranthus retroflexus; assay: as above; conditions: 1000 g/ha, evaluated after 9 days, 10=total damage to plant, 0=no damage to plant
Description: as §1

## Cn1c(=O)c(-c2c(F)ccc(F)c2Cl)c(OC(=O)C(C)(C)C)c2cc(Br)cnc21 [D13, 2,2-dimethyl-propionic acid 6-bromo-3-(2-chloro-3,6-difluoro-phenyl)-1-methyl-2-oxo-1,2-dihydro-[1,8]naphthyridin-4-yl ester]
[1]
  damage to the test plants: little or no damage

## O=c1[nH]c2nncnc2c(O)c1-c1c(F)ccc(F)c1Cl [E4]
[2]
  STEME damage to plant: 0
[3]
  NAAOF damage to plant: 0
[4]
  SOLNI damage to plant: 4
[5]
  AMARE damage to plant: 2

## Cc1cc(Cl)c2c(OC(=O)C(C)(C)C)c(-c3c(F)ccc(F)c3Cl)c(=O)n(C)c2n1 [D19]
[1]
  damage to the test plants: little or no damage

## CC(C)C(=O)Oc1c(-c2c(F)ccc(F)c2Cl)c(=O)n(C)c2ncccc12 [D7]
[2]
  STEME damage to plant: 3
[3]
  NAAOF damage to plant: 0
[4]
  SOLNI damage to plant: 0
[5]
  AMARE damage to plant: 6

## CCc1cc(C)cc(CC)c1-c1c(OC(=O)C(C)C)c2ncccc2n(C)c1=O [A6]
[2]
  STEME damage to plant: 8
[3]
  NAAOF damage to plant: 6
[4]
  SOLNI damage to plant: 6
[5]
  AMARE damage to plant: 3

## O=c1[nH]c2cccnc2c(O)c1-c1ccccc1OC(F)(F)F [A2]
[2]
  STEME damage to plant: 3
[3]
  NAAOF damage to plant: 0
[4]
  SOLNI damage to plant: 0
[5]
  AMARE damage to plant: 0

## CCn1c(=O)c(-c2c(F)ccc(F)c2Cl)c(OC(=O)C(C)(C)C)c2cnccc21 [B1, 2,2-dimethyl-propionic acid 3-(2-chloro-3,6-difluoro-phenyl)-1-ethyl-2-oxo-1,2-dihydro-[1,6]naphthyridin-4-yl ester]
[1]
  damage to the test plants: little or no damage

## CCc1cc(C)cc(CC)c1-c1c(O)c2cccnc2n(C)c1=O [D20, 3-(2,6-diethyl-4-methyl-phenyl)-4-hydroxy-1-methyl-1H-[1,8]naphthyridin-2-one]
[2]
  STEME damage to plant: 5
[3]
  NAAOF damage to plant: 5
[4]
  SOLNI damage to plant: 0
[5]
  AMARE damage to plant: 0

## CCc1cc(C)cc(CC)c1-c1c(OC(=O)C(C)C)c2cccnc2n(C)c1=O [D6, isobutyric acid 3-(2,6-diethyl-4-methyl-phenyl)-1-methyl-2-oxo-1,2-dihydro-[1,8]naphthyridin-4-yl ester]
[2]
  STEME damage to plant: 2
[3]
  NAAOF damage to plant: 0
[4]
  SOLNI damage to plant: 0
[5]
  AMARE damage to plant: 0

## Cn1c(=O)c(-c2c(F)ccc(F)c2Cl)c(O)c2ncccc21 [A3]
[2]
  STEME damage to plant: 3
[3]
  NAAOF damage to plant: 4
[4]
  SOLNI damage to plant: 3
[5]
  AMARE damage to plant: 6

## Cn1c(=O)c(-c2c(F)ccc(F)c2Cl)c(O)c2cccnc21 [D5]
[2]
  STEME damage to plant: 7
[3]
  NAAOF damage to plant: 6
[4]
  SOLNI damage to plant: 0
[5]
  AMARE damage to plant: 7

## Cn1c(=O)c(-c2c(F)ccc(F)c2Cl)c(OC(=O)C(C)(C)C)c2ncccc21 [A5]
[2]
  STEME damage to plant: 0
[3]
  NAAOF damage to plant: 3
[4]
  SOLNI damage to plant: 7
[5]
  AMARE damage to plant: 0

## CCc1cc(C)cc(CC)c1-c1c(OC(=O)C(C)(C)C)c2cccnc2n(C)c1=O [D8]
[2]
  STEME damage to plant: 2
[3]
  NAAOF damage to plant: 3
[4]
  SOLNI damage to plant: 0
[5]
  AMARE damage to plant: 0

## CC(C)(C)C(=O)Oc1c(-c2c(F)ccc(F)c2Cl)c(=O)[nH]c2ncncc12 [E1]
[1]
  damage to the test plants: little or no damage

## O=c1[nH]c2cccnc2c(O)c1-c1cccnc1 [A7]
[2]
  STEME damage to plant: 6
[3]
  NAAOF damage to plant: 2
[4]
  SOLNI damage to plant: 0
[5]
  AMARE damage to plant: 0

## CC(C)C(=O)Oc1c(-c2c(F)ccc(F)c2Cl)c(=O)n(C)c2cccnc12 [A4]
[2]
  STEME damage to plant: 4
[3]
  NAAOF damage to plant: 6
[4]
  SOLNI damage to plant: 4
[5]
  AMARE damage to plant: 5

## Cc1cc2c(c(Cl)n1)c(OC(=O)C(C)(C)C)c(-c1c(F)ccc(F)c1Cl)c(=O)n2C [B5]
[1]
  damage to the test plants: little or no damage
